From article PMC8269107, “Lipidation of Temporin-1CEb Derivatives as a Tool for Activity Improvement, Pros and Cons of the Approach” (International Journal of Molecular Sciences, 2021)
In brackets after ≈: the same amount, converted by molar mass. Where a SMILES comes first, the peptide text is derived from it. [ ]: non-standard residue; d: D form. The star is where a group is joined. Palmitoyl = CCCCCCCCCCCCCCCC(=O)*; Lauroyl = CCCCCCCCCCCC(=O)*; Pentanoyl = CCCCC(=O)*; AEEA = NCCOCCOCC(=O)O; Ahx = NCCCCCC(=O)O; βAla = NCCC(=O)O

Tests used:
[1] = tested on: S. aureus (PCM 2054) biofilm; test: Biofilm eradication assay, pre-formed 24 h old biofilm (MTT); format: cell-based, Staphylococcus aureus; conditions: S. aureus pre-formed 24 h old biofilm, 24 h treatment
Method: Biofilm eradication activity of the synthesized compounds was analyzed against 24 h old biofilms of S. aureus and C. albicans. In the case of bacteria, an overnight culture of S. aureus in Tryptic Soy Broth (TSB) supplemented with 2% glucose (TSB/+G) was used to prepare inoculum for the experiments. Briefly, 5 mL of 24 h culture was centrifuged at 5000× g, washed with sterile PBS and suspended in a fresh TSB/+G. The bacterial suspension was then diluted in a fresh growth medium to obtain the final concentration of colonies of about 1 × 10^7 cells per ml. Further, 200 μL of the inoculum was transferred to each well of 96-well sterile polystyrene flat-bottomed plate, and bacteria were then incubated for the next 24 h without shaking at 37 °C.
(§1) After that, each well of the plates containing bacterial or fungi biofilm was washed three times with PBS in order to remove all non-adherent cells. Then, peptide solutions of 200 µL ranging from 50 to 0,39 µg/mL prepared in TSB +/G in the case of experiments on S. aureus biofilm, and (RPMI-1640/+G) in the case of C. alibcans, were prepared and transferred into the microtiter plates. After the addition of the peptides, the experiments were continued for the next 24 h.
(§2) The reduction in biofilm viability was analyzed by means of MTT assay. Briefly, 20 μL of MTT solution (5 mg/mL in PBS) was added to prewashed wells with exchanged medium (180 μL of fresh medium) wells containing bacterial/yeast biofilms. Plates were then incubated in the dark for the next 3 h at 37 °C. After that time, the medium was replaced with 6 mM HCl in isopropanol and, when the reduced MTT was fully dissolved, the plates were read at 570 nm. Activity against fully developed 24 h old biofilm was described as biofilm eradication concentration (BEC50 expressed in µg/mL), which corresponded to the concentration of the compound able to reduce 50% of biofilm viability compared with the growth control.

keratinocytes (HaCaT) = test: Cytotoxicity, MTT assay; format: cell-based, human; conditions: 24 h; for effect on cell viability (in words): keratinocytes, 1 to 50 µg/mL
Method: (§3) Human dermal fibroblasts were obtained as previously reported from biopsies of healthy human skin of three donors undergoing a surgery. All procedures were approved by the Ethics Committee of Medicinal University of Gdansk (NKEBN/483/2011 and NKBBN/745/2019-2020). Immortalized human HaCaT keratinocytes (DKFZ Heidelberg, Germany) were obtained commercially.
(§4) Both types of cell lines were grown in Dulbecco′s Modified Eagle′s Medium (DMEM) (Sigma-Aldrich, Germany), containing […] of glucose, […] of L- glutamine, sodium pyruvate and sodium bicarbonate. Additionally, the medium was supplemented with 10% FCS (fetal calf serum, Sigma-Aldrich, Germany), 100 U/mL of penicillin and 100 μg/mL of streptomycin (Sigma-Aldrich, Germany). The cells were grown in standard culture dishes (BD, USA) in a humidified atmosphere with 5% CO2 at […], and the medium was changed every 2 days.
(§5) The fibroblasts and keratinocytes were seeded at density of 5500 cells per well into 96-well plates suspended in a medium supplemented with 10% FCS. After 24 h from seeding, the media were exchanged with serum- and antibiotic-free DMEM and tested peptides, dissolved in sterile water, which were added, yielding a final concentration ranging from 1 to 50 μg/mL. The cells were then incubated for the next 24 h. At the end of the experiment, the cells were treated with 20 μL of MTT (5 mg/mL in PBS). After 3 h of incubation in the presence of MTT dye, the DMEM medium was discarded and replaced with 6 mM HCl in isopropanol. When the purple crystals of formazan were fully solubilized, absorbance at 570 nm was read.

primary fibroblasts = test: Cytotoxicity, MTT assay; format: cell-based, human; conditions: 24 h; for effect on cell viability (in words): fibroblasts, 1 to 50 µg/mL
Method: as §3, §4, §5

[2] = tested on: C. albicans (CCM 8186) biofilm; test: Biofilm eradication assay, pre-formed 24 h old biofilm (MTT); format: cell-based, Candida albicans; conditions: C. albicans pre-formed 24 h old biofilm, 24 h treatment
Method: In the case of yeasts, the overnight culture of C. albicans in Sabouraud dextrose broth (SB) was used for inoculum preparation. Similar to above, 5 mL of 24 h culture was centrifuged, washed with PBS and then suspended in sterile RPMI-1640 medium (with L-glutamine, without sodium bicarbonate) supplemented with 2% glucose (RPMI-1640/+G) yielding the amount of about 1 × 10^7 cells per ml. Subsequently, 200 µL of yeast suspension was transferred into each well of a microtiter plate, and it was incubated stationary for the next 24 h at 35 °C.
as §1, §2

C.krusei CCM 8271 = test: MIC, broth microdilution; format: cell-based, Candida krusei; conditions: C.krusei CCM 8271, 24 h
Excerpt: Escherichia coli (PCM 2057 = ATCC 25922), Staphylococcus aureus (PCM 2054 = ATCC 25923), Staphylococcus epidermidis (PCM 2118 = ATCC 14990), Bacillus subtilis (PCM 2224 = ATCC 9799), Bacillus cereus (PCM 482 = ATCC 10702) and Pseudomonas aeruginosa (PCM 499 = ATCC 10145) were obtained from the Polish Collection of Microorganisms. Fungi strains Candida albicans (CCM 8186 = CNTC 49/64), Candida glabrata (CCM 8270 = ATCC 90030), Candida parapsilosis (CCM 8260 = ATCC 22019) and Candida krusei (CCM 8271 = ATCC 6258) were acquired from the Czech Collection of Microorganisms. S. aureus USA300 (wild type strain), the reference strain of Klebsiella pneumoniae (ATCC 13883) and clinical isolates of Pseudomonas aeruginosa (PA1, PA2) collected from nonrelated patients admitted to the Stefan Zeromski Specialist Municipal Hospital in Krakow (Poland) were kindly provided by the research group of the Department of Microbiology, Faculty of Biochemistry, Biophysics and Biotechnology, Jagiellonian University, Krakow, Poland.
Luria-Bertani broth (LB) and Sabouraud Dextrose broth (SB) (Biocorp, Poland) were used for cultivation of bacteria and fungi strains, respectively. The antimicrobial activity of the peptides were analyzed through determination of MIC (minimal inhibitory concentration) parameters according to Clinical and Laboratory Standards (CLSI) guidelines developed for aerobic bacteria and yeasts, respectively. Mueller-Hinton broth (MHB) was used as the working medium for all bacterial strains, while in the case of fungi, RPMI-1640 (with L-glutamine, without sodium bicarbonate) growth medium buffered with MOPS (morpholinepropanesulfonic acid) and supplemented with 2% glucose was used. Inoculum was prepared from freshly grown cultures of microorganisms at their exponential phase of growth. […] Plates were then incubated for 24 h at 37 °C in the case of bacteria and at 35 °C in the case of fungi. After that time, absorbance was read at 590 nm with a Perkin Elmer plate reader. Cultures without peptide were treated as positive control, while uninoculated media were defined as negative control. All measurements were run at least in triplicate.

| Structure (SMILES) | BEC50 [1] | IC50 (keratinocytes (HaCaT); Keratinocytes (HaCaT), MTT) | effect on cell viability (in words) (keratinocytes (HaCaT); MTT) | effect on cell viability (in words) (primary fibroblasts; MTT) | IC50 (primary fibroblasts; primary Fibroblasts, MTT) | BEC50 [2] | MIC100 (C.krusei CCM 8271) | IC50 (keratinocytes (HaCaT)) | IC50 (primary fibroblasts) |
| --- | --- | --- | --- | --- | --- | --- | --- | --- | --- |
| CC[C@H](C)[C@H](NC(=O)COCCOCCNC(=O)[C@H](Cc1c[nH]cn1)NC(=O)CCNC(=O)CCCCCN)C(=O)N[C@@H](CCCCN)C(=O)N[C@@H](CCCCN)C(=O)N[C@H](C(=O)N[C@@H](CC(C)C)C(=O)N[C@@H](CO)C(=O)N[C@@H](CCCCN)C(=O)N[C@H](C(=O)N[C@@H](CCCCN)C(=O)N[C@@H](CCCCN)C(=O)N[C@@H](CC(C)C)C(=O)N[C@@H](CC(C)C)C(N)=O)[C@@H](C)CC)[C@@H](C)CC [AHX-CAR-PEG-DK5] (H-[Ahx][βAla]H[AEEA]IKKILSKIKKLL-NH2) | >50 µg/mL | >50 µg/mL | neutral or even pro-proliferative | neutral or even pro-proliferative | >50 µg/mL | 20 µg/mL | >50 µg/mL | – | – |
| CC[C@H](C)[C@H](NC(=O)CCCCCN)C(=O)N[C@@H](CCCCN)C(=O)N[C@@H](CCCCN)C(=O)N[C@H](C(=O)N[C@@H](CC(C)C)C(=O)N[C@@H](CO)C(=O)N[C@@H](CCCCN)C(=O)N[C@H](C(=O)N[C@@H](CCCCN)C(=O)N[C@@H](CCCCN)C(=O)N[C@@H](CC(C)C)C(=O)N[C@@H](CC(C)C)C(N)=O)[C@@H](C)CC)[C@@H](C)CC [AHX-DK5] (H-[Ahx]IKKILSKIKKLL-NH2) | 25 µg/mL | >50 µg/mL | moderately toxic | moderately toxic | 50 µg/mL (≈ 32.5 µM) | 25 µg/mL | 50 µg/mL (≈ 32.5 µM) | – | – |
| CCCCC(=O)NCCC(=O)N[C@@H](Cc1c[nH]cn1)C(=O)NCCOCCOCC(=O)N[C@H](C(=O)N[C@@H](CCCCN)C(=O)N[C@@H](CCCCN)C(=O)N[C@H](C(=O)N[C@@H](CC(C)C)C(=O)N[C@@H](CO)C(=O)N[C@@H](CCCCN)C(=O)N[C@H](C(=O)N[C@@H](CCCCN)C(=O)N[C@@H](CCCCN)C(=O)N[C@@H](CC(C)C)C(=O)N[C@@H](CC(C)C)C(N)=O)[C@@H](C)CC)[C@@H](C)CC)[C@@H](C)CC [C5-CAR-PEG-DK5] ({Pentanoyl-βAla}-H[AEEA]IKKILSKIKKLL-NH2) | >50 µg/mL | >50 µg/mL | neutral or even pro-proliferative | neutral or even pro-proliferative | >50 µg/mL | 20 µg/mL | >50 µg/mL | – | – |
| CCCCCCCCCCCC(=O)NCCC(=O)N[C@@H](Cc1c[nH]cn1)C(=O)NCCOCCOCC(=O)N[C@H](C(=O)N[C@@H](CCCCN)C(=O)N[C@@H](CCCCN)C(=O)N[C@H](C(=O)N[C@@H](CC(C)C)C(=O)N[C@@H](CO)C(=O)N[C@@H](CCCCN)C(=O)N[C@H](C(=O)N[C@@H](CCCCN)C(=O)N[C@@H](CCCCN)C(=O)N[C@@H](CC(C)C)C(=O)N[C@@H](CC(C)C)C(N)=O)[C@@H](C)CC)[C@@H](C)CC)[C@@H](C)CC [C12-CAR-PEG-DK5] ({Lauroyl-βAla}-H[AEEA]IKKILSKIKKLL-NH2) | – | 10 µg/mL (≈ 5.1 µM) | – | – | 12.5 µg/mL (≈ 6.38 µM) | 12.5 µg/mL | 12.5 µg/mL (≈ 6.38 µM) | – | – |
| CCCCCCCCCCCCCCCC(=O)NCCC(=O)N[C@@H](Cc1c[nH]cn1)C(=O)NCCOCCOCC(=O)N[C@H](C(=O)N[C@@H](CCCCN)C(=O)N[C@@H](CCCCN)C(=O)N[C@H](C(=O)N[C@@H](CC(C)C)C(=O)N[C@@H](CO)C(=O)N[C@@H](CCCCN)C(=O)N[C@H](C(=O)N[C@@H](CCCCN)C(=O)N[C@@H](CCCCN)C(=O)N[C@@H](CC(C)C)C(=O)N[C@@H](CC(C)C)C(N)=O)[C@@H](C)CC)[C@@H](C)CC)[C@@H](C)CC [C16-CAR-PEG-DK5] ({Palmitoyl-βAla}-H[AEEA]IKKILSKIKKLL-NH2) | 6.25 µg/mL | 1 µg/mL (≈ 0.496 µM) | – | – | 4 µg/mL (≈ 1.98 µM) | 15 µg/mL | 12.5 µg/mL (≈ 6.2 µM) | – | – |
| CC[C@H](C)[C@H](NC(=O)COCCOCCNC(=O)[C@H](Cc1c[nH]cn1)NC(=O)CCN)C(=O)N[C@@H](CCCCN)C(=O)N[C@@H](CCCCN)C(=O)N[C@H](C(=O)N[C@@H](CC(C)C)C(=O)N[C@@H](CO)C(=O)N[C@@H](CCCCN)C(=O)N[C@H](C(=O)N[C@@H](CCCCN)C(=O)N[C@@H](CCCCN)C(=O)N[C@@H](CC(C)C)C(=O)N[C@@H](CC(C)C)C(N)=O)[C@@H](C)CC)[C@@H](C)CC [CAR-PEG-DK5] (H-[βAla]H[AEEA]IKKILSKIKKLL-NH2; N-terminus and C-terminus assumed) | >50 µg/mL | – | – | – | – | >50 µg/mL | 3.9 µg/mL (≈ 2.19 µM) | >50 µg/mL | 35 µg/mL (≈ 19.7 µM) |
| CCCCCCCCCCCC(=O)N[C@H](C(=O)N[C@@H](CCCCN)C(=O)N[C@@H](CCCCN)C(=O)N[C@H](C(=O)N[C@@H](CC(C)C)C(=O)N[C@@H](CO)C(=O)N[C@@H](CCCCN)C(=O)N[C@H](C(=O)N[C@@H](CCCCN)C(=O)N[C@@H](CCCCN)C(=O)N[C@@H](CC(C)C)C(=O)N[C@@H](CC(C)C)C(N)=O)[C@@H](C)CC)[C@@H](C)CC)[C@@H](C)CC [Compound C12-DK5] (Lauroyl-IKKILSKIKKLL-NH2) | 6.25 µg/mL | 1 µg/mL (≈ 0.623 µM) | – | – | 7 µg/mL (≈ 4.36 µM) | – | 3.13 µg/mL (≈ 1.95 µM) | – | – |
